Measurements published in the NIST ThermoML archive (doi:10.1016/j.jct.2013.02.017).
± gives the expanded uncertainty stated by the source.

Experiment: molar heat capacity at constant pressure
Conditions: 101.33 kPa, relaxation calorimetry - Quantum Design PPMS

O=P([O-])([O-])[O-].[Fe+3] [iron(III) phosphate]
molar heat capacity at constant pressure [J/K/mol]
Conditions | Crystal 1 | Crystal 2
1 K | – | 0.003782 ± 0.00083
1.886 K | – | 0.04093 ± 0.0043
1.997 K | – | 0.04782 ± 0.005
2.181 K | – | 0.0617 ± 0.0064
2.476 K | – | 0.09126 ± 0.0094
2.736 K | – | 0.127 ± 0.013
3 K | – | 0.18 ± 0.019
3.028 K | – | 0.1804 ± 0.019
3.36 K | – | 0.2601 ± 0.027
3.752 K | – | 0.3807 ± 0.039
4 K | – | 0.4766 ± 0.049
4.187 K | – | 0.5478 ± 0.055
4.659 K | – | 0.7673 ± 0.077
4.845 K | – | 0.8619 ± 0.087
5 K | – | 0.9387 ± 0.096
5.18 K | – | 1.047 ± 0.11
5.77 K | – | 1.391 ± 0.14
6 K | – | 1.539 ± 0.16
6.414 K | – | 1.814 ± 0.18
6.798 K | – | 2.084 ± 0.21
7 K | – | 2.22 ± 0.23
7.132 K | – | 2.309 ± 0.23
7.933 K | – | 2.865 ± 0.29
8 K | – | 2.913 ± 0.3
8.77 K | – | 3.466 ± 0.35
8.832 K | – | 3.516 ± 0.35
9 K | – | 3.635 ± 0.37
10 K | – | 4.367 ± 0.11
10.05 K | – | 4.403 ± 0.44
11 K | – | 5.121 ± 0.12
11.15 K | – | 5.235 ± 0.52
12 K | – | 5.897 ± 0.14
12.38 K | – | 6.189 ± 0.62
12.94 K | – | 6.616 ± 0.66
13 K | – | 6.67 ± 0.16
13.73 K | – | 7.26 ± 0.73
14 K | – | 7.443 ± 0.18
14.43 K | – | 7.762 ± 0.78
14.95 K | – | 8.294 ± 0.83
15 K | – | 8.323 ± 0.2
15.43 K | – | 8.719 ± 0.87
15.94 K | – | 9.181 ± 0.92
16 K | – | 9.243 ± 0.22
16.43 K | – | 9.674 ± 0.97
16.95 K | – | 10.23 ± 1
17 K | – | 10.28 ± 0.25
17.45 K | – | 10.8 ± 1.1
17.84 K | – | 11.2 ± 1.1
18 K | – | 11.49 ± 0.28
18.13 K | – | 11.71 ± 1.2
18.45 K | – | 12.08 ± 1.2
18.82 K | – | 12.45 ± 1.2
19 K | – | 12.58 ± 0.3
19.22 K | – | 12.73 ± 1.3
19.66 K | – | 13.2 ± 1.3
19.99 K | – | 13.49 ± 1.3
20 K | – | 13.57 ± 0.33
20.25 K | – | 13.97 ± 1.4
20.64 K | – | 14.43 ± 1.4
20.82 K | – | 14.73 ± 1.5
21.1 K | – | 15.1 ± 1.5
21.5 K | – | 15.55 ± 1.6
21.71 K | – | 16.04 ± 1.6
21.92 K | – | 16.34 ± 1.6
22.11 K | – | 16.68 ± 0.34
22.32 K | – | 17.08 ± 0.34
22.51 K | – | 17.48 ± 0.35
22.73 K | – | 17.86 ± 0.36
22.92 K | – | 18.38 ± 0.37
23.11 K | – | 18.7 ± 0.38
23.36 K | – | 19.34 ± 0.39
23.55 K | – | 19.72 ± 0.4
23.76 K | – | 20.25 ± 0.41
23.95 K | – | 20.84 ± 0.42
24.15 K | – | 21.42 ± 0.43
24.38 K | – | 21.93 ± 0.44
24.61 K | – | 22.61 ± 0.46
24.87 K | – | 23.08 ± 0.46
25 K | 23.11 ± 0.56 | 23.11 ± 0.56
25.08 K | 23.28 ± 0.5 | –
25.18 K | 22.8 ± 0.49 | –
25.4 K | 21.44 ± 0.46 | –
25.43 K | 20.48 ± 0.43 | –
25.62 K | 18.26 ± 0.39 | –
25.68 K | 17.59 ± 0.38 | –
25.72 K | 17.26 ± 0.37 | –
25.94 K | 15.76 ± 0.33 | –
25.99 K | 15.49 ± 0.33 | –
26.15 K | 14.92 ± 0.32 | –
26.41 K | 14.37 ± 0.29 | –
26.94 K | 13.87 ± 0.28 | –
27.46 K | 13.73 ± 0.28 | –
27.94 K | 13.72 ± 0.27 | –
28.45 K | 13.76 ± 0.28 | –
28.97 K | 13.89 ± 0.28 | –
29.45 K | 14.01 ± 0.28 | –
29.98 K | 14.01 ± 0.28 | –
30 K | 14.02 ± 0.34 | –
30.99 K | 14.13 ± 0.28 | –
32.01 K | 14.38 ± 0.29 | –
33.01 K | 14.68 ± 0.29 | –
34.02 K | 15.04 ± 0.3 | –
35 K | 15.41 ± 0.37 | –
35.05 K | 15.43 ± 0.31 | –
36.05 K | 15.83 ± 0.32 | –
37.06 K | 16.23 ± 0.33 | –
38.07 K | 16.64 ± 0.33 | –
39.08 K | 17.07 ± 0.34 | –
40 K | 17.52 ± 0.42 | –
40.08 K | 17.53 ± 0.35 | –
41.1 K | 17.99 ± 0.36 | –
42.11 K | 18.43 ± 0.37 | –
43.12 K | 18.88 ± 0.38 | –
44.12 K | 19.31 ± 0.39 | –
45 K | 19.76 ± 0.47 | –
45.14 K | 19.79 ± 0.4 | –
46.14 K | 20.26 ± 0.41 | –
47.17 K | 20.76 ± 0.41 | –
48.16 K | 21.23 ± 0.42 | –
49.19 K | 21.7 ± 0.43 | –
50 K | 22.04 ± 0.48 | –
50.22 K | 22.15 ± 0.44 | –
53.7 K | 23.85 ± 0.48 | –
55 K | 24.35 ± 0.54 | –
59.64 K | 26.61 ± 0.53 | –
60 K | 26.66 ± 0.59 | –
65 K | 28.97 ± 0.64 | –
66.28 K | 29.55 ± 0.59 | –
70 K | 31.26 ± 0.69 | –
73.59 K | 32.72 ± 0.66 | –
75 K | 33.49 ± 0.74 | –
80 K | 35.67 ± 0.79 | –
81.69 K | 36.3 ± 0.73 | –
85 K | 37.77 ± 0.83 | –
90 K | 39.9 ± 0.88 | –
90.72 K | 40.16 ± 0.8 | –
95 K | 42.03 ± 0.93 | –
100 K | 44.11 ± 0.97 | –
100.73 K | 44.09 ± 0.88 | –
110 K | 48.06 ± 1.1 | –
110.86 K | 47.98 ± 0.96 | –
120 K | 51.77 ± 1.1 | –
120.94 K | 51.73 ± 1 | –
130 K | 55.28 ± 1.2 | –
131.04 K | 55.47 ± 1.1 | –
140 K | 58.62 ± 1.3 | –
141.13 K | 58.97 ± 1.2 | –
150 K | 61.85 ± 1.4 | –
151.25 K | 62.31 ± 1.2 | –
160 K | 64.98 ± 1.4 | –
161.4 K | 65.71 ± 1.3 | –
170 K | 68.05 ± 1.5 | –
171.44 K | 68.87 ± 1.4 | –
180 K | 71.06 ± 1.6 | –
181.6 K | 71.84 ± 1.4 | –
190 K | 74.02 ± 1.6 | –
191.71 K | 74.76 ± 1.5 | –
200 K | 76.93 ± 1.7 | –
201.83 K | 77.69 ± 1.6 | –
210 K | 79.79 ± 1.8 | –
211.94 K | 80.42 ± 1.6 | –
220 K | 82.59 ± 1.8 | –
222.06 K | 83.12 ± 1.7 | –
230 K | 85.33 ± 1.9 | –
232.15 K | 85.84 ± 1.7 | –
240 K | 88 ± 1.9 | –
242.24 K | 88.09 ± 1.8 | –
250 K | 90.6 ± 2 | –
252.28 K | 90.69 ± 1.8 | –
260 K | 93.11 ± 2 | –
262.36 K | 92.91 ± 1.9 | –
270 K | 95.55 ± 2.1 | –
272.53 K | 95.97 ± 1.9 | –
273.15 K | 96.3 ± 2.1 | –
280 K | 97.9 ± 2.2 | –
282.61 K | 99.14 ± 2 | –
290 K | 100.17 ± 2.2 | –
292.62 K | 101.41 ± 2 | –
298.15 K | 101.96 ± 2.2 | –
300 K | 102.35 ± 2.2 | –
302.73 K | 102.84 ± 2.1 | –
